Reference: US20260108588A1, “A COMPLEX COMPRISING A ALPHA-LACTALBUMIN AND A FATTY ACID OR LIPID FOR USE IN THE TREATMENT OR PREVENTION OF CANCER” (LINNANE PHARMA AB, priority 2022, published 2026)

How the values were obtained:
DLD1 cells = assay: Colony assay; type: cell-based, human; conditions: DLD1, 7, 21 and 35 μM
Procedure: (§1) Cells were seeded on 12-well plates (1×10^3 cells/well) and incubated overnight. Cells were treated with different complexes: BAMLET (7, 21, and 35 μM) or alpha1-oleate (7, 21, and 35 μM) in serum-free media and incubated for one hour at 37° C., 5% CO2. The incubation was continued after the addition of FCS to the media. On day ten post-treatment, the cells were washed once and fixed with cold methanol (300 μl) for 15 minutes on ice. Finally, colonies of cells were stained with hematoxylin (ThermoFisher Scientific, Cat #7211) for five minutes and images were captured under a dissecting microscope (Carl Zeiss). The experiment was repeated twice for each cell line.

HT29 cells = assay: Colony assay; type: cell-based, human; conditions: HT29, 7, 21 and 35 μM
Procedure: as §1

[1] = tested on: VEGF, Ki67, Cyclin D1 and β-catenin; assay: Immunohistochemistry of intestinal sections for tumor markers; type: in vivo, mice; conditions: vs sham
Source text: (§2) Swiss rolls of longitudinally opened intestinal segments were fixed overnight in 10% neutral buffered formalin. Samples were embedded in paraffin and 5 μm thick sections were further processed for histology and immunohistochemistry using antibodies for bovine alpha-Lactalbumin (ThermoFisher Scientific, Cat #A10-128A), β-catenin (CellSignaling, Cat #9562), Cyclin D1 (ThermoFisher Scientific, Cat #SC8396), Ki-67 (BD Biosciences, Cat #556003), VEGF (Abcam, Cat #ab46154), PD-1 (Abcam, Cat #ab214421) and TTF-1 (Abcam, Cat #ab227652) as previously described^28 with slight modifications. Citrate buffer (Dako Target Retrieval Solution, Agilent, Cat #S1699) was used for antigen retrieval for Cyclin D1, Ki-67, VEGF, bovine alpha-Lactalbumin and β-catenin staining. EDTA buffer (Abcam, Cat #ab64216) was used for antigen retrieval for TTF-1 staining. Immunohistochemistry was quantified by ImageJ. For Hematoxylin-Eosin (H&E) staining, Hematoxylin (ThermoFisher Scientific, Cat #7211) was used followed by Eosin-Y (ThermoFisher Scientific, Cat #7111) for counterstaining. Images were captured using the AX10 microscope or the Hamamatzu Nanozoomer scanner (Carl Zeiss) and the DAB-positive beta-catenin antibody fields (4-10) for each organ cross-sections were quantified by ImageJ.

[2] = tested on: intestinal tumors of Apc^Min/+ mice; assay: Intestinal cancer model in Apc^Min/+ mice, BAMLET oral gavage, tumor enumeration and histology; type: in vivo
Procedure: Apc^Min/+ mice were obtained from Jackson Laboratories at about eight weeks of age. Genotyping was performed by PCR analysis of genomic DNA obtained from blood collected from the retro-orbital sinus. Multiple tumors were developed in the small intestine at eight to ten weeks. Mice were acclimated for about two weeks at the local animal facility at BMC, Lund University in order to reduce stress from transportation.
For BAMLET therapeutic protocol, ten-week-old female mice (n=10 per group) were orally gavaged with 20 mg of BAMLET in 400 μl PBS, twice daily for ten days. Mice were not given water or food five hours prior to BAMLET administration. Food and water were provided 30 minutes after BAMLET oral administration. Sham treated mice were gavaged with 400 μl PBS. Mice were sacrificed two weeks and five weeks after the end of the treatment and intestinal tissue samples were collected for further analysis.
Mice were sacrificed by isoflurane inhalation. Tumor enumeration and sample collection was presented as previously described^28. Tumor numbers and size were determined using a dissecting microscope (Olympus) and evaluated by three blinded investigators.
The opened intestinal segments were spread flat between sheets of filter paper and fixed overnight in 10% neutral buffered formalin. Formalin-fixed sections were transferred to 70% ethanol and stained with 0.2% methylene blue (Sigma, #M9140). Stained sections were rinsed in deionized water and imaged by a dissecting microscope.
as §2

[3] = Giant unilamellar vesicle experiments, membrane response; conditions: 21 μM BAMLET, one hour
Procedure: Giant unilamellar vesicles (GUVs) were formed by hydrogel-assisted swelling according to established protocols^29,30, with modifications previously described^31. Briefly, glass cover slips were sonicated in 1 M NaOH solution (30 minutes), rinsed in Milli-Q water (three times) and further sonicated (30 minutes). Coverslips were plasma etched (1 min) using a BD-20 laboratory corona treater (Electro Technic Products Inc.) to render the surface clean and hydrophilic. A thin film of 1% (w/v) solution of molten ultra-low gelling temperature type IX-A agarose (Sigma) was deposited on the coverslip to provide a reaction bed for GUV formation. The cover slips were placed in AttoFluor® cell chambers (ThermoFisher Scientific). Following, 25 μl of egg phosphatidylcholine (#840051P—Avanti Polar Lipids) in chloroform (25 mg/ml) doped with 4% v/v rhodamine C (1 mg/ml, Sigma) were deposited onto the gelled agarose surface, and the solvent evaporated with nitrogen gas. The lipid-hydrogel film was rehydrated with 200 mM sucrose in PBS, pH 7.2 for one hour and then transferred into 200 mM glucose in PBS, pH 7.2 for sedimentation. GUVs were allowed to settle overnight before seeded on the coverslips for visualization after treatment with 21 μM BAMLET for one hour.

[4] = tested on: lungs, livers, kidneys and spleens of Apc^Min/+ mice; assay: Macroscopy, histology and immunohistochemistry of organs outside the intestine of Apc^Min/+ mice, long-term drinking water; type: in vivo
Procedure: For BAMLET prophylaxis protocol, ten-week-old female Apc^Min/+ mice (n=10 mice per group) were provided daily with BAMLET (20 mg/day in 5 ml PBS) in the drinking water for eight weeks and sacrificed at 18 weeks of age. A similar treatment was used in the survival study groups where mice were observed until 37 weeks of age.
as §2

PD-1 = PD-1 staining of intestinal sections; type: in vivo, mice; conditions: tumor and healthy tissue areas, long-term drinking water, vs sham
Procedure: For PD-1 immunofluorescence staining, paraffin sections were deparaffinized in xylene, rehydrated with reduced ethanol concentrations and then washed with deionized water. The slides were then immerged in target retrieval solution (Dako, S1699) and boiled for 20 minutes, followed by 30 minutes permeabilization with 0.25% Triton in PBS at room temperature. A blocking solution consisting in 5% goat serum in PBS was added on the sections for 1 h at room temperature, before adding the rabbit monoclonal anti-mouse PD-1 antibody (Abcam-ab214421, 1:150) in 1% goat serum and incubated overnight at 4° C. The slides were then washed with 0.025% PBS-T and stained with goat anti-rabbit […] secondary antibody (1:200 for 1 h at room temperature, Invitrogen cat. n. A11034). The nuclei were counterstained with DAPI for 15 minutes, washed in PBS, and then mounted with Fluoromount aqueous mounting media (Sigma, F4680). Images were captured with the Hamamatzu Nanozoomer scanner and the fluorescence intensity was quantified by ImageJ.

BAMLET
colony-forming cells after ten days (DLD1 cells): lasting effect
colony-forming cells after ten days (HT29 cells): lasting effect
expression of tumor markers VEGF, Ki67, Cyclin D1 and β-catenin ([1]; intestinal sections, five weeks post gavage and eight weeks drinking water): less strongly expressed
β-catenin staining of intestinal sections ([1]; long-term BAMLET in drinking water): markedly reduced
total polyp number ([2]; 20 mg gavage twice daily for ten days, two and five weeks post oral gavage, vs sham): lower
number of small tumors, fully formed polyps and confluent tumors along the intestinal wall ([2]; Apc^Min/+ mice, H&E sections, BAMLET vs sham (PBS)): reduced
tumor areas ([2]; BAMLET treated Apc^Min/+ mice vs sham group, FIG. 1f): smaller
villus structure ([2]; after short-term BAMLET treatment, H&E sections): normal villus structure was detected in the majority of sections
membrane response [3]: triggered rapid blebbing, tubulation and eventual vesicle division
number of lung areas with proliferating cells ([4]; TTF-1 / β-catenin stained lung sections, vs sham): markedly reduced
BAMLET staining in lungs, livers or kidneys ([4]; immunohistochemistry, in contrast to the intestine): not detected
β-catenin staining in lungs, livers and kidneys ([4]; long-term BAMLET in drinking water, vs sham): general reduction
macroscopic changes in intestine, peritoneal cavity and major organs ([4]; long-term follow up, vs sham): much less apparent
level of TTF-1 staining in areas with proliferating cells ([4]; lung sections, vs sham): markedly reduced
PD-1 staining (PD-1): significantly lower
